Source: patent publication US10653648B2, “Histone acetyltransferase activators and compositions and uses thereof” (THE TRUSTEES OF COLUMBIA UNIVERSITY IN THE CITY OF NEW YORK, priority 2016, dated 2020)

Columns and labels:
[1] = cited from earlier work
SUDHL-6 = experiment: Histone H3 acetylation by Western Blot; format: cell-based; details: in combination with romidepsin, 48 hours
Procedure: (§1) FIG. 26 provides a Western Blot showing the effect of JF1 and YF2 alone and in combination with romidepsin on histone acetylation in HAT-mutated cells lines. Cells were exposed to YF2 and romidepsin alone and in combinations for 48 hours in SUDHL-6 and SUDHL-10 (EP300 mut/CREBBP mut). The synergistic effect of YF2 on histone acetylation was evaluated by Western Blot with histone H3 serving as loading control.

SUDHL-10 = experiment: Histone H3 acetylation by Western Blot; format: cell-based; details: in combination with romidepsin, 48 hours
Procedure: as §1

[2] = test system: seven B-cell lymphoma cell lines; experiment: Synergy with romidepsin, Excess Over Bliss, cell line panel; format: cell-based; details: in combination with romidepsin, 72 hrs
Procedure: (§2) FIGS. 22A-E show the synergy effect of JF1, a HAT activator compound, with romidepsin (a pan-class HDAC inhibitor) in B-cell lymphoma cell lines. Synergy between JF1 and romidepsin was evaluated in Pfeiffer (EP300 wt/CREBBP mut) and SUDHL-10 cells (EP300 mut/CREBBP Δ). Excess Over Bliss was calculated. Drug synergy will be confirmed by Excess over bliss (EOB). Bliss is calculated by the following formula: X=(A+B)−(A*B); where X designates the combined response for the two single compounds with effects (inhibition) A and B. The difference between Bliss and observed growth inhibition (Y) induced by combinations of drugs A and B at the same dose is the termed EOB (EOB=Y−X) 18,19. An EOB>10 connotes synergy. […] Synergy effect of JF1 and romidepsin was also assessed in a panel of B-cell lymphoma cell lines (N=5) (FIGS. 22C-22E). Cells were treated by different concentrations of JF1 and romidepsin for 48 hrs (FIG. 22C) and 72 hrs (FIG. 22D) and an Excess Over Bliss was calculated for both time points for all five cell lines. SUDHL-6 and Pfeiffer (Bold) were treated 2, 2.5, […] JF1, whereas the rest of cell lines were treated with 2, 3, 4 μM JF1. Synergy is defined by an Excess Over Bliss of 10. […]
(§3) Cells were exposed to increasing concentrations of YF2 and romidepsin in various combinations for 72 hrs and Excess Over Bliss (EOB) was calculated.

[3] = test system: SUDHL-10 cells (EP300 mut/CREBBP mut); experiment: Histone acetylation quantified by mass spectrometry; format: cell-based; details: combination with romidepsin (1.5 nM), YF2 6 uM, 48 hours
Procedure: (§4) FIGS. 25A-B compare the synergy effects that HAT-activators JF1 and YF2 in combination with romidepsin have on histone acetylation in B-cell lymphoma cell lines, as quantified by mass spectrometry. In these experiments cells were seeded at 5,000 cells/mL and exposed to YF2 (6 uM), JF1 (3 uM) and romidepsin (1.5 nM) alone and in combinations for 48 hours. Following treatment, SUDHL-6 (EP300 mut/CREBBP mut, FIG. 25A) and SUDHL-10 cells (EP300 mut/CREBBP mut, FIG. 25B) were harvested for histone extraction.
The synergy trend for the SUDCL-6 cell line is evident for SUDCL-10 as well (FIG. 25B). In the same manner as described above, SUDHL-10 cells were treated separately with romidepsin, JF1, YF2, JF1/romidepsin, and YF2/romidepsin and the fold change in histone acetylation was measured.

[4] = test system: SUDHL-6 (EP300 mut/CREBBP mut); experiment: as above; format: cell-based; details: combination with romidepsin (1.5 nM); YF2 6 uM, JF1 3 uM; 48 hours
Procedure: as §4
For each, a synergy effect, calculated as a fold change of treatment vs. control, was observed showing an increase in histone acetylation for JF1/romidepsin and YF2/romidepsin compared to individual treatment of the cells with either JF1, YF2, or romidepsin alone (FIG. 25A).

[5] = test system: Pfeiffer (EP300 wt/CREBBP mut); experiment: Synergy with romidepsin, Excess Over Bliss; format: cell-based; details: in combination with romidepsin, 72 hrs
Procedure: as §2, §3

Compound	solubility [1]	global acetylation of Histone H3 compared with single agent effects (SUDHL-6)	global acetylation of Histone H3 compared with single agent effects (SUDHL-10)	cell lines with strong synergy (EOB of at least 20) [2]	cell lines with strong synergy (EOB of at least 20), percentage [2]	global acetylation of histones compared with single agent effects ([3]; JF1 3 uM)	H3:K9AC maximum synergy effect on acetylation [3]	H3:K9AC increase in acetylation vs. YF2 or JF1 alone [4]	H3:K9AC increase in acetylation vs. control [4]	H3:K9AC increase in acetylation vs. romidepsin [4]	global acetylation of histones compared with single agent effects [4]	strong synergy response (EOB of at least 20) [5]
CCOc1ccccc1C(=O)Nc1ccc(Cl)c(C(F)(F)F)c1 [CTB]	insoluble	–	–	–	–	–	–	–	–	–	–	–
CCCCCCCCCCCCCCCc1cccc(OCC)c1C(=O)Nc1ccc(Cl)c(C(F)(F)F)c1 [CTPB]	insoluble	–	–	–	–	–	–	–	–	–	–	–
CCOc1cccc(OCCN(C)C)c1C(=O)Nc1ccc(Cl)c(C(F)(F)F)c1 [YF2]	–	induced the global acetylation of Histone H3	induced the global acetylation of Histone H3	6 out of 7	86%	induced the global acetylation of histones	about 1.6 fold	8 fold	10 fold	~2 fold	induced the global acetylation of histones	fail to show a strong response
